Test results as given in US8680149B2, “1-amino-alkylcyclohexane derivatives for the treatment of mast cell mediated diseases” (Merz Pharma GmbH & Co. KGaA, priority 2008, dated 2014).

Legend:
[1] = system: human mast cell line HMC-1; assay: Mast cell degranulation in vitro: histamine concentration in culture medium by sandwich-ELISA; format: cell-based; details: for responsiveness of HMC-1 cells (degranulation) at low calcium: low calcium concentration; for induction of mast cell degranulation (histamine concentration in culture supernatant): calcium concentration elevated to 1 mM, histamine 10 minutes after addition; for inhibition of cholinergic agonist-induced mast cell degranulation (histamine concentration in culture supernatant): neramexane 10E-6M to 10E-16M added 5 minutes prior to cholinergic stimulus, histamine determined 10 minutes after addition
Method: The human mast cell line HMC-1 is obtained from J. H. Butterfield (Minnesota, USA) and cultured under standard conditions in RPMI Medium 1640 (GIBCO, Karlsruhe, Germany) at 37° C. For functional assays, the calcium concentration of the medium is adjusted to 1 mM.
The Mast cell degranulation is monitored by determination of histamine concentration in the culture medium using a sandwich-ELISA from IBL (Hamburg, Germany).Histamine concentration is determined in untreated cells, medium without cells, HMC-1 cells treated with calcimycin, (a calcium ionophore,used as positive control). Additional controls to check reagibilty of the cells are LPS (lipopolysaccharide) and PMA (phorbol 12-myristate 13-acetate). Histamine concentration is determined 10 minutes after addition of the respective substances. Nicotine and choline are used as stimulus for nAChR, muscarine as stimulus for mAChR, and a combination of acetylcholine and eserine (an acetylcholinesterase inhibitor) is used as pancholinergic stimulus. Neramexane is tested at concentrations ranging from 10E-6M to 10E-16M and is added to the culture medium 5 minutes prior to the respective cholinergic stimulus. All experiments are performed twice in quadruplicate.
Statistical analysis is performed using the Wilcoxon sum-of-ranks test (available on www.statpages.net).
In order to determine the sensitivity of mast cells towards cholinergic signals, the HMC-1 cell line cultured under standard conditions with either low or high calcium concentrations is used.

[2] = molecular target: α9α10 nicotinic Acetylcholine Receptor (Rattus norvegicus, UniProt P43144+Q9JLB5); details: cited from earlier work
[3] = neramexane at concentrations higher than 1 mM

Chain of α9α10 nicotinic Acetylcholine Receptor (P43144 26-479): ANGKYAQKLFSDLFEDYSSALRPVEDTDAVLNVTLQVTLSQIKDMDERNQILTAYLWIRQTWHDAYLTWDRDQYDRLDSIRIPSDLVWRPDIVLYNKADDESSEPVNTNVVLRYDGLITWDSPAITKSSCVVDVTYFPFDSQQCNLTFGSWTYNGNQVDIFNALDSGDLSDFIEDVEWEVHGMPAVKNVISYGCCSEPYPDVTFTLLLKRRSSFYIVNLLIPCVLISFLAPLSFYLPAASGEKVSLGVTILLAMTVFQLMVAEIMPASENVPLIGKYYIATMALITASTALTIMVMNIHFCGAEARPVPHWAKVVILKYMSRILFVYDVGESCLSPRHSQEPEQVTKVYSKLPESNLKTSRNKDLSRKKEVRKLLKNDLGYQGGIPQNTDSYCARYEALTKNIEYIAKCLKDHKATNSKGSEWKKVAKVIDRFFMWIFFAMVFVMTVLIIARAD
Chain of α9α10 nicotinic Acetylcholine Receptor (Q9JLB5 25-447): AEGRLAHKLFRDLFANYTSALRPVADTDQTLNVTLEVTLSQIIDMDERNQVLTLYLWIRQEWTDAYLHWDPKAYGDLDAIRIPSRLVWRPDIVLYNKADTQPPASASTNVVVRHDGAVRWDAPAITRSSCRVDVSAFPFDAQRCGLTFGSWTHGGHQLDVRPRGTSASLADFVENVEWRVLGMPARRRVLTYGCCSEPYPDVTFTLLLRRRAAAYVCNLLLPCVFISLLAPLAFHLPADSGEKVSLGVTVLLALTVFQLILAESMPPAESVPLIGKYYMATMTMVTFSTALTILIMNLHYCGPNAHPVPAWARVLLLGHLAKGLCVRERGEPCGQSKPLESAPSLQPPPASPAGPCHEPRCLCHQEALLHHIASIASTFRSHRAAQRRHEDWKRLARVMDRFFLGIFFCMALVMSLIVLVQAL

| Compound | responsiveness of HMC-1 cells (degranulation) at low calcium [1] | induction of mast cell degranulation (histamine concentration in culture supernatant) ([1]; HMC-1 cells) | inhibition of cholinergic agonist-induced mast cell degranulation (histamine concentration in culture supernatant) ([1]; HMC-1 cells, calcium 1 mM) | other results |
| --- | --- | --- | --- | --- |
| CNc1ccc2oc(C[C@H]3O[C@@]4(CC[C@H]3C)O[C@H]([C@H](C)C(=O)c3ccc[nH]3)[C@H](C)C[C@H]4C)nc2c1C(=O)O [calcimycine, calcimycin] | unresponsive | – | – | – |
| C[C@@H]1O[C@H](C[N+](C)(C)C)C[C@H]1O [muscarine] | – | No histamine liberation | – | – |
| CC1(C)CC(C)(C)CC(C)(N)C1.CS(=O)(=O)O [Neramexane-mesylate] | – | – | inhibits the observed effects in equimolar concentrations and, dose-dependently, even in lower concentrations than the respective agonist | – |
| CN1CCCC1c1cccnc1 (centres unmarked) [nicotine] | unresponsive | dose-dependently produce mast cell degranulation | – | concentration sufficient to induce complete degranulation ([1]; HMC-1 cells, calcium 1 mM): Nanomolar concentrations |
| CC1(C)CC(C)(C)CC(C)(N)C1 [Neramexane, 1-amino-1,3,3,5,5-pentamethylcyclohexane] | – | – | dose-dependent inhibitory effect | blockade of α9α10 nicotinic Acetylcholine Receptor [2]: blocker; mode of antagonism at α9α10 nicotinic Acetylcholine Receptor [2]: non-competitive antagonist; dependence of blockage on membrane potential [2, 3]: only slightly dependent on the membrane potential; effect on rate of desensitization [2, 3]: not to modify the rate of desensitization |
